Measurements published in US6399541B1, “Substituted 2,4-diamino-1,3,5-triazines as herbicides” (Bayer Aktiengesellschaft, priority 1997, dated 2002).

Experiments:
Abutilon = assay: Pre-emergence test/greenhouse; type: in vivo; details: 1000 g of ai./ha, after three weeks
Method: (§1) Solvent: 5 parts by weight of acetone
(§2) Emulsifier: 1 part by weight of alkylaryl polyglycol ether
(§3) To produce a suitable preparation of active compound, 1 part by weight of active compound is mixed with the stated amount of solvent, the stated amount of emulsifier is added and the concentrate is diluted with water to the desired concentration.
(§4) Seeds of the test plants are sown in normal soil. After about 24 hours, the soil is sprayed with the preparation of active compound in such a way that the particular amounts of active compound desired are employed per unit area. The concentration of the spray liquor is chosen such that the particular amounts of active compound desired are applied in 1000 l of water/ha.
(§5) After three weeks, the degree of damage to the plants is assessed in % damage in comparison to the development of the untreated control.
(§6) 0%=no effect (as untreated control) 100%=total destruction

Alopecurus = assay: Pre-emergence test/greenhouse; type: in vivo; details: after three weeks
Method: as §1, §2, §3, §4, §5, §6

Amaranthus = assay: Pre-emergence test/greenhouse; type: in vivo; details: 1000 g of ai./ha, after three weeks
Method: as §1, §2, §3, §4, §5, §6

Avena fatua = assay: Pre-emergence test/greenhouse; type: in vivo; details: after three weeks
Method: as §1, §2, §3, §4, §5, §6

Galium = assay: Pre-emergence test/greenhouse; type: in vivo; details: 1000 g of ai./ha, after three weeks
Method: as §1, §2, §3, §4, §5, §6

Xanthium [1] = assay: Pre-emergence test/greenhouse; type: in vivo; details: 1000 g of ai./ha, after three weeks
Method: as §1, §2, §3, §4, §5, §6

Cassia [2] = assay: Post-emergence test/greenhouse; type: in vivo; details: 125 g of ai./ha, after three weeks
Method: as §1, §2, §3
as §4, with “Test plants which have a height” for “Seeds”, “5 to 15 cm” for “the test plants”, “are” for “are sown in normal soil. After about 24 hours, the soil is”, “applied” for “employed”
as §5
(§7) 0%=no effect (as untreated control)

Ipomoea [3] = assay: Post-emergence test/greenhouse; type: in vivo; details: after three weeks
Method: as §1, §2, §3
as §4, with “Test plants which have a height” for “Seeds”, “5 to 15 cm” for “the test plants”, “are” for “are sown in normal soil. After about 24 hours, the soil is”, “applied” for “employed”
as §5, §7

Matricaria = assay: Post-emergence test/greenhouse; type: in vivo; details: 125 g of ai./ha, after three weeks
Method: as §1, §2, §3
as §4, with “Test plants which have a height” for “Seeds”, “5 to 15 cm” for “the test plants”, “are” for “are sown in normal soil. After about 24 hours, the soil is”, “applied” for “employed”
as §5, §7

Polygonum = assay: Post-emergence test/greenhouse; type: in vivo; details: 60 g of ai./ha, after three weeks
Method: as §1, §2, §3
as §4, with “Test plants which have a height” for “Seeds”, “5 to 15 cm” for “the test plants”, “are” for “are sown in normal soil. After about 24 hours, the soil is”, “applied” for “employed”
as §5, §7

Solanum = assay: Post-emergence test/greenhouse; type: in vivo; details: 60 g of ai./ha, after three weeks
Method: as §1, §2, §3
as §4, with “Test plants which have a height” for “Seeds”, “5 to 15 cm” for “the test plants”, “are” for “are sown in normal soil. After about 24 hours, the soil is”, “applied” for “employed”
as §5, §7

Veronica = assay: Post-emergence test/greenhouse; type: in vivo; details: after three weeks
Method: as §1, §2, §3
as §4, with “Test plants which have a height” for “Seeds”, “5 to 15 cm” for “the test plants”, “are” for “are sown in normal soil. After about 24 hours, the soil is”, “applied” for “employed”
as §5, §7

weeds [4] = assay: Pre-emergence test; type: in vivo; details: cf. Table A
Method: as §1, §2, §3, §4, §5, §6

weeds [5] = assay: Post-emergence test; type: in vivo; details: cf. Table B
Method: as §1, §2, §3
as §4, with “Test plants which have a height” for “Seeds”, “5 to 15 cm” for “the test plants”, “are” for “are sown in normal soil. After about 24 hours, the soil is”, “applied” for “employed”
as §5, §7

Setaria [6] = assay: Pre-emergence test/greenhouse; type: in vivo; details: after three weeks
Method: as §1, §2, §3, §4, §5, §6

Echinochloa = assay: Post-emergence test/greenhouse; type: in vivo; details: 125 g of ai./ha, after three weeks
Method: as §1, §2, §3
as §4, with “Test plants which have a height” for “Seeds”, “5 to 15 cm” for “the test plants”, “are” for “are sown in normal soil. After about 24 hours, the soil is”, “applied” for “employed”
as §5, §7

Setaria [7] = assay: Post-emergence test/greenhouse; type: in vivo; details: 125 g of ai./ha, after three weeks
Method: as §1, §2, §3
as §4, with “Test plants which have a height” for “Seeds”, “5 to 15 cm” for “the test plants”, “are” for “are sown in normal soil. After about 24 hours, the soil is”, “applied” for “employed”
as §5, §7

Xanthium [8] = assay: Post-emergence test/greenhouse; type: in vivo; details: 125 g of ai./ha, after three weeks
Method: as §1, §2, §3
as §4, with “Test plants which have a height” for “Seeds”, “5 to 15 cm” for “the test plants”, “are” for “are sown in normal soil. After about 24 hours, the soil is”, “applied” for “employed”
as §5, §7

Cassia [9] = assay: Pre-emergence test/greenhouse; type: in vivo; details: 250 g of ai./ha, after three weeks
Method: as §1, §2, §3, §4, §5, §6

Ipomoea [10] = assay: Pre-emergence test/greenhouse; type: in vivo; details: 250 g of ai./ha, after three weeks
Method: as §1, §2, §3, §4, §5, §6

Viola = assay: Pre-emergence test/greenhouse; type: in vivo; details: 250 g of ai./ha, after three weeks
Method: as §1, §2, §3, §4, §5, §6

Barley = assay: Post-emergence test/greenhouse; type: in vivo; details: 125 g of ai./ha, after three weeks
Method: as §1, §2, §3
as §4, with “Test plants which have a height” for “Seeds”, “5 to 15 cm” for “the test plants”, “are” for “are sown in normal soil. After about 24 hours, the soil is”, “applied” for “employed”
as §5, §7

Wheat = assay: Post-emergence test/greenhouse; type: in vivo; details: 125 g of ai./ha, after three weeks
Method: as §1, §2, §3
as §4, with “Test plants which have a height” for “Seeds”, “5 to 15 cm” for “the test plants”, “are” for “are sown in normal soil. After about 24 hours, the soil is”, “applied” for “employed”
as §5, §7

SMILES | degree of damage, Abutilon (Abutilon) [%] | degree of damage, Alopecurus (Alopecurus; 1000 g of ai./ha) [%] | degree of damage, Amaranthus (Amaranthus) [%] | degree of damage, Cassia (Cassia [2]) [%] | degree of damage, Ipomoea (Ipomoea [3]; 125 g of ai./ha) [%] | degree of damage, Matricaria (Matricaria) [%] | degree of damage, Veronica (Veronica; 125 g of ai./ha) [%] | action against weeds compared with known compound (A) (weeds [4]) | activity against weeds compared with known compound (A) (weeds [5]) | other results
CCC(Nc1nc(N)nc(C(C)F)n1)c1ccccc1 (racemic) [Example 1, 2-amino-4-(1-fluoro-ethyl)-6-(1-phenyl-propyl-amino)-1,3,5-triazine] | 70 | 100 | 100 | 90 | 100 | 80 | 100 | considerably strong action against weeds than the known compound (A) | considerably stronger activity against weeds than the known compound (A) | degree of damage, Avena fatua (Avena fatua; 1000 g of ai./ha): 70%; degree of damage, Galium (Galium): 100%; degree of damage, Xanthium (Xanthium [1]): 100%; degree of damage, Ipomoea (Ipomoea [3]; 60 g of ai./ha): 100%; degree of damage, Polygonum (Polygonum): 100%; degree of damage, Solanum (Solanum): 95%; degree of damage, Veronica (Veronica; 60 g of ai./ha): 95%
CCC(Nc1nc(NC(C)=O)nc(C(C)F)n1)c1ccccc1 (racemic) [Example 2, 2-acetylamino-4-(1-fluoro-ethyl)-6-(1-phenyl-propylamino)-1,3,5-triazine] | 100 | 90 | 100 | 100 | 100 | 95 | 95 | considerably strong action against weeds than the known compound (A) | considerably stronger activity against weeds than the known compound (A) | degree of damage, Setaria (Setaria [6]; 1000 g of ai./ha): 70%; degree of damage, Echinochloa (Echinochloa): 80%; degree of damage, Setaria (Setaria [7]): 80%; degree of damage, Xanthium (Xanthium [8]): 80%; melting point: 118 °C
CC(Nc1nc(N)nc(C(C)(C)F)n1)c1ccccc1 (racemic) [Example 13] | – | – | – | 95 | 100 | – | 100 | considerably strong action against weeds than the known compound (A) | considerably stronger activity against weeds than the known compound (A) | degree of damage, Alopecurus (Alopecurus; 250 g of ai./ha): 90%; degree of damage, Avena fatua (Avena fatua; 250 g of ai./ha): 90%; degree of damage, Cassia (Cassia [9]): 100%; degree of damage, Ipomoea (Ipomoea [10]): 80%; degree of damage, Setaria (Setaria [6]; 250 g of ai./ha): 80%; degree of damage, Viola (Viola): 100%; degree of damage, Barley (Barley): 0%; degree of damage, Wheat (Wheat): 0%
